Test results from US11571454B2, “Anticancer peptides that synergistically enhance chemotherapeutic potency” (The Penn State Research Foundation, priority 2017, dated 2023).

Tested on: NCI/ADR-RES (drug-resistant ovarian carcinoma) cells
Experiment: MTT cytotoxicity assay, NCI/ADR-RES
Type: cell-based, human
Description: All cells were cultured using standard culture conditions at 37° C., 5% CO2, and 95% humidity. A549 (CCL-185), OVCAR-3 (HTB-161), T24 (HTB-4), and NCI/ADR-RES were cultured in RPMI-1640 supplemented with 10% v/v fetal bovine serum (FBS), 2 mM L-glutamine (L-Gln), 10,000 units penicillin/mL, 10 mg/mL streptomycin, and 25 μg/mL amphotericin B. HUVEC (PCS-100-010) cells were cultured in Vascular Cell Basal Media (PCS-100-030) supplemented with an Endothelial Cell Growth Kit-VEGF (PCS-100-041) and 10 μg/mL gentamycin in culture flasks coated with 0.1% gelatin by incubating at 37° C. for 15 min. NL20 (CRL-2503) cells were cultured in Ham's F12 supplemented with 1.5 g/L sodium bicarbonate, 2.7 g/L glucose, 2.0 mM L-glutamine, 0.1 mM nonessential amino acids, 0.005 mg/ml insulin, 10 ng/ml epidermal growth factor, 0.001 mg/ml transferrin, 500 ng/ml hydrocortisone and 4% fetal bovine serum, as advised by American Type Culture Collection (ATCC).
Viability was calculated by comparing to an untreated control.
All experiments were performed with n>6.
Cell viability experiments were completed n>6 in two independent experiments and analyzed using GraphPad Prism 8 to fit curves and calculate IC50 values using inhibitor vs. normalized response non-linear regression model. IC50 values are reported as mean values±standard deviation. […] Pore size frequency distribution was completed by ImageJ FIJI on 4 independent cells and n=30 pores from SEM images. UV-Vis OD600 and CD spectra are means of 5 and 3 replicates, respectively and reported as mean±standard deviation. Individual UV-Vis and CD spectra, as well as fluorescent confocal and TEM micrographs, shown are representative plots from three individual experiments. CD data is with a variance in ellipticity of 0.2 millidegrees at each wavelength. Relative fluorescence data calculated from fluorescent confocal images represents the average of 10 independent measurements±standard deviation. For spheroid volume analysis, a Kruskal-Wallis test and Dunn's multiple comparisons test was performed using GraphPad Prism 8.

Substance: H-KRWHWWRRHWVVW-NH2 [MAD1]
- IC50 (48 hours treatment, MTT, read-out: Cancerous (IC50, μM) NCl/ADR-RES): 85.6 µM
- Therapeutic Index NCl/ADR-RES (IC50-HUVEC/IC50-NCI/ADR-RES): 1.2
- cytotoxic activity against NCI/ADR-RES (result in words): moderate activity
